This passage reports AC50 and PKR % activation results from patent publication US20230159538A1, “PYRROLIDINE-PYRAZOLES AS PYRUVATE KINASE ACTIVATORS” (Global Blood Therapeutics, Inc., priority 2020, published 2023).

The assay addresses T1, Human pyruvate kinase R (PKR) (Homo sapiens, UniProt P30613).
T1 construct: Human pyruvate kinase R (PKR), residues 14-574; 6x-His (N, cleaved yes); 8x-Arg (N, cleaved yes); SUMO (N, cleaved yes); host or cells: E. coli
The experiment in a line: Biochemical assay for activation of pyruvate kinase R (Kinase-Glo luminescence, ATP generation). The settings on record: for AC50: 0.1 nM PKR, 2 mM FBP, 0.3 mM ADP, 0.1 mM PEP; for PKR % activation: maximal activation level relative to the activation level achieved by AG-348 @ 10 μM. As to the method: Proteins were translated as fusions with 6×-His, 8×-Arg, and SUMO at the N-terminus. […] All proteins were cloned, expressed in E. coli, and purified using similar protocols. Cells were grown at 30° C. in Luria-Bertani broth supplemented with 0.4% glucose to OD600=0.8 and induced with 0.4 mM IPTG at 16° C. for 18 hours. Cells were harvested by centrifugation, resuspended in 50 mM potassium phosphate pH 8.0, 500 mM NaCl, 25 mM imidazole pH 8.0, and 3 mM β-mercaptoethanol. Cells were lysed using a LM20 microfluidizer from Microfluidics (Westwood, Mass.). The crude lysate was immediately supplemented with 0.2 mM phenylmethylsulfonyl fluoride (PMSF) and centrifuged at 20,000 g for 20 minutes. The soluble fraction was subsequently incubated with 2 mL Ni-NTA (GE Healthcare) per 1,000 ODs for 1 hour at 4° C. Following incubation with the Ni-NTA resin, lysate was removed by pelleting resin at 2,500 g for 3 minutes and washed 3 times with 9 bed volumes of 50 mM potassium phosphate pH 8.0, 500 mM NaCl, 25 mM imidazole, and 3 mM β-mercaptoethanol. Following the batch wash Ni-NTA resin was loaded onto a gravity column and His-tagged protein was eluted with 6 bed volumes of 10 mM Tris/HCl pH 8.0, 200 mM NaCl, 500 mM imidazole, and 3 mM β-mercaptoethanol. Eluted protein was dialyzed overnight against 10 mM Tris/HCl pH 8.0, 200 mM NaCl, and 1 mM DTT and the 6×-His-8×-Arg-SUMO-tag was cleaved using a 20:1 molar ratio of protein:3C protease. The protein was purified by anion exchange chromatography on a HiTrapQ or MonoQ 10/100 GL column (GE Healthcare) via a linear NaCl gradient and twice by size exclusion chromatography using a Superdex S200 26/60 column (GE Healthcare) run in 10 mM Tris/HCl pH 8.0, 200 mM NaCl, 10 mM MgCl2, 1 mM DTT. Proteins were concentrated to ˜12 mg/mL for crystallization and flash frozen for storage.
Biochemical Assay for Activation of Pyruvate Kinase R
Activation of pyruvate kinase R (PKR) and pyruvate kinase M2 (PKM2) were measured using a luminescence based measurement of ATP generation and the Kinase-Glo luminescent kinase reagent kit.
Background: Kinase-Glo measures the ATP left after a reaction by luminescence.

T1 sequence (P30613 14-574): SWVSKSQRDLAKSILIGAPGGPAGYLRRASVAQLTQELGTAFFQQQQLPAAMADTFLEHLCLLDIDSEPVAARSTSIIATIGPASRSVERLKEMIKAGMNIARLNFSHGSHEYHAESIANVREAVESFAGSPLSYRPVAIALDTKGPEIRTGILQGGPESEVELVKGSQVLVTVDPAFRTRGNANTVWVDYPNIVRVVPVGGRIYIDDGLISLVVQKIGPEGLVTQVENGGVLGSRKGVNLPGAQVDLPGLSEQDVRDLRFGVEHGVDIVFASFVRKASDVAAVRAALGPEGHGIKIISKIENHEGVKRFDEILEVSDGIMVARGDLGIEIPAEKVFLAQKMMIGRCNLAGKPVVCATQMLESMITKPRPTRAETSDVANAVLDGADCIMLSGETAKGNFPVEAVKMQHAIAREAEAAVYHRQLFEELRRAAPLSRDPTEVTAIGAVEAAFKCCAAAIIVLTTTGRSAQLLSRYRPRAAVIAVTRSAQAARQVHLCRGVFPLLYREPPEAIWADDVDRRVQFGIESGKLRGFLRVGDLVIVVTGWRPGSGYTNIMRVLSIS

For orientation: AC50 means the concentration at which the activity in the assay is half-maximal. Read a high AC50 as weaker potency. With `O=C([C@H](CO)c1ncccc1F)N1Cc2cn(S(=O)(=O)c3ccc4ncccc4c3)nc2C1` (single isomer, unassigned) [Compound 103, (2S)-2-(3-fluoropyridin-2-yl)-3-hydroxy-1-[2-(quinoline-6-sulfonyl)-2H,4H,5H,6H-pyrrolo[3,4-c]pyrazol-5-yl]propan-1-one or (2R)-2-(3-fluoropyridin-2-yl)-3-hydroxy-1-[2-(quinoline-6-sulfonyl)-2H,4H,5H,6H-pyrrolo[3,4-c]pyrazol-5-yl]propan-1-one], the half-maximal activity concentration (AC50) turned out to be 220 nM and the PKR % activation worked out at 41%.
The like results for `O=C([C@@H](c1ccccc1)N1CCOCC1)N1Cc2cn(S(=O)(=O)c3ccc(OC(F)F)cc3)nc2C1` (single isomer, unassigned) [Compound 107, (2R)-1-{2-[4-(difluoromethoxy)benzenesulfonyl]-2H,4H,5H,6H-pyrrolo[3,4-c]pyrazol-5-yl}-2-(morpholin-4-yl)-2-phenylethan-1-one or (2S)-1-{2-[4-(difluoromethoxy)benzenesulfonyl]-2H,4H,5H,6H-pyrrolo[3,4-c]pyrazol-5-yl}-2-(morpholin-4-yl)-2-phenylethan-1-one] were, in that order, above 10000 nM and 0%.
The like results for `O=C([C@@H](c1ccccc1)N1CCOCC1)N1Cc2cn(S(=O)(=O)c3ccc(OC(F)F)cc3)nc2C1` (single isomer, unassigned) [Compound 108, (2R)-1-{2-[4-(difluoromethoxy)benzenesulfonyl]-2H,4H,5H,6H-pyrrolo[3,4-c]pyrazol-5-yl}-2-(morpholin-4-yl)-2-phenylethan-1-one or (2S)-1-{2-[4-(difluoromethoxy)benzenesulfonyl]-2H,4H,5H,6H-pyrrolo[3,4-c]pyrazol-5-yl}-2-(morpholin-4-yl)-2-phenylethan-1-one] were, in that order, above 10000 nM and 0%.
For the compound `C[C@@H](O)[C@H](C(=O)N1Cc2cn(S(=O)(=O)c3ccc4ncsc4c3)nc2C1)c1ccccc1` [Compound 4], the activity was half-maximal at 1810 nM (AC50) and the PKR % activation turned out to be 100%.
The like results for `C[C@@H](O)[C@H](C(=O)N1Cc2cn(S(=O)(=O)c3ccc4ncsc4c3)nc2C1)c1ccccc1` [Compound 6] were, in that order, 2530 nM and 150%.
The like results for `C[C@@H](O)[C@H](C(=O)N1Cc2cn(S(=O)(=O)c3ccc(OC(F)F)cc3)nc2C1)c1ccccc1` [Compound 9] were, in that order, 147 nM and 131%.
Take `C[C@@H](O)[C@H](C(=O)N1Cc2cn(S(=O)(=O)c3ccc(OC(F)F)cc3)nc2C1)c1ccccc1` [Compound 10]: the half-maximal activity concentration (AC50) was determined as 455 nM and the PKR % activation turned out to be 165%.
The like results for `C[C@@H](O)[C@H](C(=O)N1Cc2cn(S(=O)(=O)c3ccc(OC(F)F)cc3)nc2C1)c1ccccc1` [Compound 11] were, in that order, 7270 nM and 164%.
For the compound `NCC(C(=O)N1Cc2cn(S(=O)(=O)c3ccc4ncsc4c3)nc2C1)c1ccccc1` (centres unmarked) [Compound 13, 3-amino-1-[2-(1,3-benzothiazole-6-sulfonyl)-2H,4H,5H,6H-pyrrolo[3,4-c]pyrazol-5-yl]-2-phenylpropan-1-one], half-maximal activity (AC50) was put at 167 nM.
Still for that read-out and setting: the result for `N[C@@H](C(=O)N1Cc2cn(S(=O)(=O)c3ccc4c(c3)NCCO4)nc2C1)c1ccccc1` [Compound 16, (2R)-2-amino-1-[2-(3,4-dihydro-2H-1,4-benzoxazine-6-sulfonyl)-2H,4H,5H,6H-pyrrolo[3,4-c]pyrazol-5-yl]-2-phenylethan-1-one] reads 156 nM.
On the same count and under the same terms, the result for `O=C(N1Cc2cn(S(=O)(=O)c3ccc4ncsc4c3)nc2C1)C1(c2ccccc2)CCOC1` (centres unmarked) [Compound 18, 6-{[5-(3-phenyloxolane-3-carbonyl)-2H,4H,5H,6H-pyrrolo[3,4-c]pyrazol-2-yl]sulfonyl}-1,3-benzothiazole] reads 83 nM; that for `O=C(N1Cc2cn(S(=O)(=O)c3ccc4ncsc4c3)nc2C1)C1(c2ccccc2)COCCN1` (centres unmarked) [Compound 21, 6-{[5-(3-phenylmorpholine-3-carbonyl)-2H,4H,5H,6H-pyrrolo[3,4-c]pyrazol-2-yl]sulfonyl}-1,3-benzothiazole], 209 nM.
The same measure, in the same setting: under `N[C@@H](C(=O)N1Cc2cn(S(=O)(=O)c3ccc4ncsc4c3)nc2C1)c1ccc(F)cc1` [Compound 28, (2R)-2-amino-1-[2-(1,3-benzothiazole-6-sulfonyl)-2H,4H,5H,6H-pyrrolo[3,4-c]pyrazol-5-yl]-2-(4-fluorophenyl)ethan-1-one] stands 13 nM.
In the case of `N[C@@H](C(=O)N1Cc2cn(S(=O)(=O)c3ccc(OC(F)F)cc3)nc2C1)c1cccc(OC(F)(F)F)c1` [Compound 30, (2R)-2-amino-1-{2-[4-(difluoromethoxy)benzenesulfonyl]-2H,4H,5H,6H-pyrrolo[3,4-c]pyrazol-5-yl}-2-[3-(trifluoromethoxy)phenyl]ethan-1-one], the AC50 was 371 nM.
As to `CC(C)(O)[C@H](C(=O)N1Cc2cn(S(=O)(=O)c3ccc4occc4c3)nc2C1)c1ccccc1` [Compound 33, (2R)-1-[2-(1-benzofuran-5-sulfonyl)-2H,4H,5H,6H-pyrrolo[3,4-c]pyrazol-5-yl]-3-hydroxy-3-methyl-2-phenylbutan-1-one], the concentration at half-maximal activity (AC50) stood at 130 nM.
On the same count and under the same terms, the result for `CC(C)(O)[C@@H](C(=O)N1Cc2cn(S(=O)(=O)c3ccc4occc4c3)nc2C1)c1ccccc1` [Compound 34, (2S)-1-[2-(1-benzofuran-5-sulfonyl)-2H,4H,5H,6H-pyrrolo[3,4-c]pyrazol-5-yl]-3-hydroxy-3-methyl-2-phenylbutan-1-one] reads 210 nM; that for `N[C@H](C(=O)N1Cc2cn(S(=O)(=O)c3ccc4ncsc4c3)nc2C1)c1ccccc1F` [Compound 38, (2S)-2-amino-1-[2-(1,3-benzothiazole-6-sulfonyl)-2H,4H,5H,6H-pyrrolo[3,4-c]pyrazol-5-yl]-2-(2-fluorophenyl)ethan-1-one], 270 nM.
The same measure, in the same setting: under `N[C@@H](C(=O)N1Cc2cn(S(=O)(=O)c3ccc(OC(F)F)cc3)nc2C1)c1ccc(F)cc1` [Compound 49, (2R)-2-amino-1-{2-[4-(difluoromethoxy)benzenesulfonyl]-2H,4H,5H,6H-pyrrolo[3,4-c]pyrazol-5-yl}-2-(4-fluorophenyl)ethan-1-one] stands 17 nM; under `N[C@@H](C(=O)N1Cc2cn(S(=O)(=O)c3ccc(OC(F)F)cc3)nc2C1)c1cccc(Cl)c1` [Compound 50, (2R)-2-amino-2-(3-chlorophenyl)-1-{2-[4-(difluoromethoxy)benzenesulfonyl]-2H,4H,5H,6H-pyrrolo[3,4-c]pyrazol-5-yl}ethan-1-one], 71 nM.
For `N[C@@H](C(=O)N1Cc2cn(S(=O)(=O)c3ccc(OC(F)F)cc3)nc2C1)c1ccc(Cl)cc1` [Compound 51, (2R)-2-amino-2-(4-chlorophenyl)-1-{2-[4-(difluoromethoxy)benzenesulfonyl]-2H,4H,5H,6H-pyrrolo[3,4-c]pyrazol-5-yl}ethan-1-one], the AC50 worked out at 23 nM.
The same measure, in the same setting: the result for `N[C@@H](C(=O)N1Cc2cn(S(=O)(=O)c3ccc4ncsc4c3)nc2C1)c1ccccc1Cl` [Compound 52, (2R)-2-amino-1-[2-(1,3-benzothiazole-6-sulfonyl)-2H,4H,5H,6H-pyrrolo[3,4-c]pyrazol-5-yl]-2-(2-chlorophenyl)ethan-1-one] reads 13 nM; that for `N[C@@H](C(=O)N1Cc2cn(S(=O)(=O)c3ccc4ncsc4c3)nc2C1)c1cccc(Cl)c1` [Compound 53, (2R)-2-amino-1-[2-(1,3-benzothiazole-6-sulfonyl)-2H,4H,5H,6H-pyrrolo[3,4-c]pyrazol-5-yl]-2-(3-chlorophenyl)ethan-1-one], 36 nM.
Still for that read-out and setting: the result for `N[C@@H](C(=O)N1Cc2cn(S(=O)(=O)c3ccc(OC(F)F)cc3)nc2C1)c1ccccc1F` [Compound 56, (2R)-2-amino-1-{2-[4-(difluoromethoxy)benzenesulfonyl]-2H,4H,5H,6H-pyrrolo[3,4-c]pyrazol-5-yl}-2-(2-fluorophenyl)ethan-1-one] reads 30 nM; that for `N[C@@H](C(=O)N1Cc2cn(S(=O)(=O)c3ccc4c(c3)NCCO4)nc2C1)c1ccccc1F` [Compound 57, (2R)-2-amino-1-[2-(3,4-dihydro-2H-1,4-benzoxazine-6-sulfonyl)-2H,4H,5H,6H-pyrrolo[3,4-c]pyrazol-5-yl]-2-(2-fluorophenyl)ethan-1-one], 17 nM.
